Measured values reported in patent US11008323B2, “Substituted tricyclic 1,4-benzodiazepinone derivatives as allosteric modulators of group II metabotropic glutamate receptors” (Domain Therapeutics, priority 2015, dated 2021).

Biological target: T1, human mGluR3 (hmGluR3) (Homo sapiens, UniProt Q14832)
T1 construct: expressed in transfected cells; host or cells: HEK-293 cells, transient co-transfection by electroporation
Assay: Human mGluR3 positive allosteric modulator evaluation using Ca++ functional assay
Type: cell-based
Conditions: hmGluR3 transiently over-expressed in HEK-293 cells; stimulated by EC50 glutamate concentration; intracellular Ca2+ (Fluo4AM, FLIPR Tetra)
Method: Compounds of the present invention were tested successively for their agonist and positive allosteric modulator activities on human mGluR3 (hmGluR3) transiently over-expressed in HEK-293 cells. Compounds exert agonist activity if they are able to activate hmGluR3 by themselves, i.e., in absence of the endogenous agonist glutamate; and they exert positive allosteric modulator activity if they increase the action of the endogenous agonist glutamate.
HEK-293 cells were maintained in Modified Eagle's Medium supplemented with 10% Foetal Calf Serum, 1% Penicillin/Streptomycin and 1% non-essential amino acids at 37° C./5% CO2.
Cells were co-transfected by electroporation with four DNA plasmids encoding hmGluR3, a chimeric G protein allowing redirection of the activation signal toward intracellular calcium pathway, and two glutamate transporters so as to decrease extracellular glutamate levels and avoid receptor desensitization (Brabet I et al., Neuropharmacology 37(8), 1043-51, 1998). After transfection, cells were seeded in 75 cm^2 culture flasks, and cultured for 24 h.
Receptor activity was detected by changes in intracellular calcium measured using the fluorescent Ca^2+ sensitive dye, Fluo4AM (Molecular Probes).
The day of the assay, medium was aspirated and replaced during 3 hrs by freshly prepared buffer B (HBSS 1×, Hepes 20 mM, MgSO4-7H2O 1 mM, Na2CO3 3.3 mM, CaCl2-2H2O 1.3 mM, 0.5% BSA, Probenecid 2.5 mM). Then, cells were loaded at 37° C./5% CO2 for 1.5 hrs with buffer B containing 1 μM Fluo4AM, 0.1 mg/mL Pluronic Acid, 7 μg/mL Glutamate Pyruvate Transaminase and 2 mM sodium pyruvate. Afterwards cells were washed with buffer B. Cells were then detached from the 75 cm^2 culture flasks with Accutase® (5 min incubation at 37° C.), centrifuged (5 min at 840 rpm), resuspended in buffer B and finally seeded at a density of 30,000 cells/well in black-walled clear-bottom 384-well plates. Addition of compounds on cells and intracellular Ca^2+ measurements (excitation 485 nm, emission 525 nm) were performed by the fluorescence microplate reader FLIPR Tetra (Molecular Devices).
Agonist and positive allosteric modulator activities of compounds were consecutively evaluated on the same cells plate. Agonist activity was first tested during 10 min with the addition of compound alone on the cells. Then, the cells were stimulated by an EC50 glutamate concentration and fluorescence was recorded for additional 3 min. EC50 glutamate concentration is the concentration giving 50% of the maximal glutamate response. Agonist and/or positive allosteric modulator activity(ies) were evaluated in comparison to basal signal or signal evoked by EC50 glutamate concentration alone, respectively.
For potency determination, a dose-response test was performed using 20 concentrations of each compound of the invention. Dose-response curves were fitted using the sigmoïdal dose-response (variable slope) analysis in XLfit Scientific Curve Fitting for Excel (IDBS). EC50 of agonist/EC50 of positive allosteric modulator activity(ies) were calculated. Dose-response experiments were all performed in duplicate, two times independently.

T1 sequence (Q14832 23-879): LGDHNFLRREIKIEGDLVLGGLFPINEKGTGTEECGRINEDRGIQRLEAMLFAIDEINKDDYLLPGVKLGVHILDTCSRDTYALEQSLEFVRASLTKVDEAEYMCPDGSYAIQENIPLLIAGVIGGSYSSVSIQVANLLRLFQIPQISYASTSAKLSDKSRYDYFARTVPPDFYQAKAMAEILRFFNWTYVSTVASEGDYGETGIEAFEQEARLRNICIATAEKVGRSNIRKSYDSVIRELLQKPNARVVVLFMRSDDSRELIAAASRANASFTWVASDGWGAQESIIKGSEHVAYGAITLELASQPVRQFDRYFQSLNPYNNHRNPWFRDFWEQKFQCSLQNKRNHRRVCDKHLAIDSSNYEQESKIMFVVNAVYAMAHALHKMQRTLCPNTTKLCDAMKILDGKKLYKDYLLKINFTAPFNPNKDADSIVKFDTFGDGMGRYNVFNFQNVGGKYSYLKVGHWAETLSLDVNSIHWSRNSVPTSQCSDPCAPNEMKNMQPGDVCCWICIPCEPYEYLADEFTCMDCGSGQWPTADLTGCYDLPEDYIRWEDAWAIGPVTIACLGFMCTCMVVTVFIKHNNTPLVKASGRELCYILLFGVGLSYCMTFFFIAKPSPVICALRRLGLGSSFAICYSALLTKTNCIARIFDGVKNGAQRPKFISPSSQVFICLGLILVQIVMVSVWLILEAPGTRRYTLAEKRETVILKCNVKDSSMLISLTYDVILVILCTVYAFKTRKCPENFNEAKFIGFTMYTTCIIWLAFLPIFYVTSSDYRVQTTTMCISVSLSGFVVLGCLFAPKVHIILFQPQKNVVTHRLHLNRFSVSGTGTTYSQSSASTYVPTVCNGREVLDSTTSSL

| EC50 [nM] | Compound |
| --- | --- |
| 100 to 1000 | CCc1ncccc1-c1ccc2c(c1)-n1cc(Br)cc1C(=O)N(C)C21CC1 [Example 19, 2-Bromo-5-methyl-9-(2-ethyl-pyridin-3-yl)-spiro[benzo[f]pyrrolo[1,2-a][1,4]diazepine-6,1′-cyclopropan]-4(5H)-one] |
| < 100 | CCc1ncccc1-c1ccc2c(c1)-n1cc(-c3ccnn3C)cc1C(=O)N(C)C21CC1 [Example 163] |
| < 100 | Cc1ccc(-c2ccc3c(c2)-n2cc(-c4ccccc4)cc2C(=O)N(C)C32CC2)c(C)n1 [Example 107, 5-Methyl-2-phenyl-9-(2,6-dimethyl-pyridin-3-yl)-spiro[benzo[f]pyrrolo[1,2-a][1,4]diazepine-6,1′-cyclopropan]-4(5H)-one] |
| < 100 | Cc1ccc(-c2ccc3c(c2)-n2cc(-c4ccccc4)cc2C(=O)N(C)C32CC2)cn1 [Example 103, 5-Methyl-2-phenyl-9-(6-methyl-pyridin-3-yl)-spiro[benzo[f]pyrrolo[1,2-a][1,4]diazepine-6,1′-cyclopropan]-4(5H)-one] |
| < 100 | CN1C(=O)c2cc(-c3nnco3)cn2-c2cc(-c3ccc(Cl)nc3)ccc2C12CC2 [Example 191] |
| < 100 | Cc1ncccc1-c1ccc2c(c1)-n1cc(-c3ccccc3F)cc1C(=O)N(C)C21CC1 [Example 151] |
| < 100 | CN1C(=O)c2cc(-c3ccccc3)cn2-c2cc(-c3ccncc3)ccc2C12CC2 [Example 102, 5-Methyl-2-phenyl-9-(pyridin-4-yl)-spiro[benzo[f]pyrrolo[1,2-a][1,4]diazepine-6,1′-cyclopropan]-4(5H)-one] |
| 100 to 1000 | Cc1ncccc1-c1ccc2c(c1)-n1cc(C3CCCC3)cc1C(=O)N(C)C21CC1 [Example 156] |
| < 100 | Cc1ncccc1-c1ccc2c(c1)-n1cc(C(F)F)cc1C(=O)N(C)C21CC1 [Example 201] |
| < 100 | CN1C(=O)c2cc(-c3ccccc3)cn2-c2cc(-c3cccnc3)ccc2C12CC2 [Example 93, 5-Methyl-2-phenyl-9-pyridin-3-yl-spiro[benzo[f]pyrrolo[1,2-a][1,4]diazepine-6,1′-cyclopropan]-4(5H)-one] |
| 100 to 1000 | Cc1ncccc1-c1ccc2c(c1)-n1cc(Br)cc1C(=O)N(C)C21CC1 [Example 17, 2-Bromo-5-methyl-9-(2-methyl-pyridin-3-yl)-spiro[benzo[f]pyrrolo[1,2-a][1,4]diazepine-6,1′-cyclopropan]-4(5H)-one] |
| < 100 | Cc1ncccc1-c1ccc2c(c1)-n1cc(-c3ccccc3)nc1C(=O)N(C)C21CC1 [Example 140, 9-(2-Methyl-pyridin-3-yl)-5-methyl-2-phenyl-spiro[benzo[f]imidazo[1,2-a][1,4]diazepine-6,1′-cyclopropan]-4(5H)-one] |
| > 1000 | CN1C(=O)c2cc(-c3ccccc3)nn2-c2cc(Br)ccc2C12CC2 [Example 11, 9-Bromo-5-methyl-2-phenyl-spiro[benzo[f]pyrazolo[1,5-a][1,4]diazepine-6,1′-cyclopropan]-4(5H)-one] |
| < 100 | CCc1ncccc1-c1ccc2c(c1)-n1cc(-c3ccccc3F)cc1C(=O)N(C)C21CC1 [Example 162] |
| < 100 | CCc1ncccc1-c1ccc2c(c1)-n1cc(C)cc1C(=O)N(C)C21CC1 [Example 199] |
| < 100 | Cc1ccc(-c2ccc3c(c2)-n2cccc2C(=O)N(C)C32CC2)c(C)n1 [Example 56, 5-Methyl-9-(2,6-dimethylpyridin-3-yl)-spiro[benzo[f]pyrrolo[1,2-a][1,4]diazepine-6,1′-cyclopropan]-4(5H)-one] |

| EC50 [nM] | Compound |
| --- | --- |
| > 1000 | CN1C(=O)c2c(Cl)ccn2-c2cc(Br)ccc2C12CC2 [Example 6, 9-Bromo-3-chloro-5-methyl-spiro[benzo[f]pyrrolo[1,2-a][1,4]diazepine-6,1′-cyclopropan]-4(5H)-one] |
| < 100 | Cc1cc2n(c1)-c1cc(-c3ccc(C)nc3)ccc1C1(CC1)N(C)C2=O [Example 198] |
| < 100 | Cc1ncccc1-c1ccc2c(c1)-n1cc(-c3cnco3)cc1C(=O)N(C)C21CC1 [Example 182] |
| < 100 | CNc1ccc(-c2ccc3c(c2)-n2cc(-c4ccccc4)cc2C(=O)N(C)C32CC2)cn1 [Example 118, 5-Methyl-2-phenyl-9-(6-methylamino-pyridin-3-yl)-spiro[benzo[f]pyrrolo[1,2-a][1,4]diazepine-6,1′-cyclopropan]-4(5H)-one] |
| < 100 | Cc1ncccc1-c1cc(F)c2c(c1)-n1cccc1C(=O)N(C)C21CC1 [Example 73, 7-Fluoro-5-methyl-9-(2-methyl-pyridin-3-yl)-spiro[benzo[f]pyrrolo[1,2-a][1,4]diazepine-6,1′-cyclopropan]-4(5H)-one] |
| > 1000 | Cc1ncccc1-c1ccc2c(c1)N1CCCC1C(=O)N(C)C21CC1 (stereo not shown) [Example 209, 5-Methyl-9-(2-methylpyridin-3-yl)-1,2,3,3a-tetrahydro-spiro[benzo[f]pyrrolo[1,2-a][1,4]diazepine-6,1′-cyclopropan]-4(5H)-one] |
| 100 to 1000 | CN1C(=O)c2cccn2-c2cc(C3=CCN(c4ccncn4)CC3)ccc2C12CC2 [Example 47, 5-Methyl-9-(1-pyrimidin-4-yl-1,2,3,6-tetrahydro-pyridin-4-yl)-spiro[benzo[f]pyrrolo[1,2-a][1,4]diazepine-6,1′-cyclopropan]-4(5H)-one] |
| > 1000 | CN1C(=O)c2cccn2-c2cc(-c3ccc(N4CCCCC4)nc3)ccc2C12CC2 [Example 43, 5-Methyl-9-(3,4,5,6-tetrahydro-2H-[1,2′]bipyridinyl-5′-yl)-spiro[benzo[f]pyrrolo[1,2-a][1,4]diazepine-6,1′-cyclopropan]-4(5H)-one] |
| > 1000 | CN1C(=O)c2cccn2-c2cc(Cl)ccc2C1(C)C [Example 222, 9-Chloro-5,6,6-trimethyl-5,6-dihydro-benzo[f]pyrrolo[1,2-a][1,4]diazepin-4-one] |
| < 100 | Cc1ccc(-c2ccc3c(c2)-n2cc(-c4ccnn4C)cc2C(=O)N(C)C32CC2)cn1 [Example 159] |
| < 100 | Cc1ccc(-c2ccc3c(c2)-n2cc(Br)cc2C(=O)N(C)C32CC2)cn1 [Example 18, 2-Bromo-5-methyl-9-(6-methyl-pyridin-3-yl)-spiro[benzo[f]pyrrolo[1,2-a][1,4]diazepine-6,1′-cyclopropan]-4(5H)-one] |
| < 100 | Cc1ncccc1-c1ccc2c(c1)-n1c(cc(Cl)c1F)C(=O)N(C)C21CC1 [Example 83, 9-(2-Methyl-pyridin-3-yl)-2-chloro-1-fluoro-5-methyl-spiro[benzo[f]pyrrolo[1,2-a][1,4]diazepine-6,1′-cyclopropan]-4(5H)-one] |
| > 1000 | CN(C)c1ccc2c(c1)-n1cc(-c3ccccc3)cc1C(=O)N(C)C21CC1 [Example 115, 9-Dimethylamino-5-methyl-2-phenyl-spiro[benzo[f]pyrrolo[1,2-a][1,4]diazepine-6,1′-cyclopropan]-4(5H)-one] |
| < 100 | Cc1ncccc1-c1ccc2c(c1)-n1cc(-c3ccncc3)cc1C(=O)N(C)C21CC1 [Example 145] |
| < 100 | Cc1ccc(-c2ccc3c(c2)-n2nc(-c4ccccc4)cc2C(=O)N(C)C32CC2)c(C)n1 [Example 126, 9-(2,6-Dimethyl-pyridin-3-yl)-5-methyl-2-phenyl-spiro[benzo[f]pyrazolo[1,5-a][1,4]diazepine-6,1′-cyclopropan]-4(5H)-one] |
| > 1000 | CN1C(=O)c2cc(-c3ccccc3)nn2-c2cc(-c3ccccc3Cl)ccc2C12CC2 [Example 131, 9-(2-Chloro-phenyl)-5-methyl-2-phenyl-spiro[benzo[f]pyrazolo[1,5-a][1,4]diazepine-6,1′-cyclopropan]-4(5H)-one] |

| Compound | EC50 [nM] |
| --- | --- |
| CN1C(=O)c2cccn2-c2cc(C3=CCNCC3)ccc2C12CC2 [Example 46, 5-Methyl-9-(1,2,3,6-tetrahydro-pyridin-4-yl)-spiro[benzo[f]pyrrolo[1,2-a][1,4]diazepine-6,1′-cyclopropan]-4(5H)-one] | > 1000 |
| CN1C(=O)c2cc(Cl)cn2-c2cc(Br)ccc2C12CC2 [Example 5, 9-Bromo-2-chloro-5-methyl-spiro[benzo[f]pyrrolo[1,2-a][1,4]diazepine-6,1′-cyclopropan]-4(5H)-one] | > 1000 |
